21 compounds from ChEMBL document CHEMBL3856277, “Design, synthesis, and activity evaluation of selective inhibitors of anti-apoptotic Bcl-2 proteins: The effects on the selectivity of the P1 pockets in the active sites” (Bioorg Med Chem Lett, 2016) can be followed below.

Assay [1] deals with Apoptosis regulator Bcl-2 (Homo sapiens, UniProt P10415). Briefly: Inhibition of 5-FAM-Bid peptide binding to Bcl-2 (unknown origin) by fluorescence polarization assay. (Polarisation of emitted light reports the rotation of a fluorescent probe.)
For assay [2], the species on record is Homo sapiens. Put plainly: Selectivity index, ratio of Ki for Bcl-2 (unknown origin) to Ki for MCL-1 (unknown origin).
Assay [3] deals with Induced myeloid leukemia cell differentiation protein Mcl-1 (Homo sapiens, UniProt Q07820). Briefly: Inhibition of 5-FAM-Bid peptide binding to MCL-1 (unknown origin) by fluorescence polarization assay.
The species named for assay [4] is Homo sapiens. Briefly: Selectivity index, ratio of Ki for Bcl-2 (unknown origin) to Ki for Bcl-XL (unknown origin).
The next assay has as its target Bcl-2-like protein 1 (Homo sapiens, UniProt Q07817). Briefly: Inhibition of 5-FAM-Bid peptide binding to Bcl-XL (unknown origin) by fluorescence polarization assay.
Assay [5] can be described thus: Growth inhibition of human NCI-H23 cells after 72 hrs by MTT assay. It is filed as functional, cell-based. Particulars: NCI-H23, 72 h. A general note: Formazan colour is commonly taken as a measure of viable cells.
Assay [6] can be described thus: Growth inhibition of human U266 cells after 72 hrs by MTT assay. It is filed as functional, cell-based. Particulars: U-266, 72 h.
Assay [7] is described as follows: Growth inhibition of human SKOV3 cells after 72 hrs by MTT assay. In kind it is functional, cell-based. Particulars: SK-OV-3, 72 h.
A short description of assay [8]: Growth inhibition of human HL60 cells after 72 hrs by MTT assay. It is filed as functional, cell-based. Particulars: HL-60, 72 h.
Assay [9] is described as follows: Growth inhibition of human MCF7 cells after 72 hrs by MTT assay. In kind it is functional, cell-based. Particulars: MCF7, 72 h.

As usually defined, the Ki is a measure of affinity in units of concentration, obtained from inhibition or displacement. A lower Ki goes with higher affinity. One may read the IC50 as the point on the concentration scale where inhibition reaches its midpoint.

Molecules are shown by their SMILES.

Sequence of Induced myeloid leukemia cell differentiation protein Mcl-1 (Q07820 whole entry): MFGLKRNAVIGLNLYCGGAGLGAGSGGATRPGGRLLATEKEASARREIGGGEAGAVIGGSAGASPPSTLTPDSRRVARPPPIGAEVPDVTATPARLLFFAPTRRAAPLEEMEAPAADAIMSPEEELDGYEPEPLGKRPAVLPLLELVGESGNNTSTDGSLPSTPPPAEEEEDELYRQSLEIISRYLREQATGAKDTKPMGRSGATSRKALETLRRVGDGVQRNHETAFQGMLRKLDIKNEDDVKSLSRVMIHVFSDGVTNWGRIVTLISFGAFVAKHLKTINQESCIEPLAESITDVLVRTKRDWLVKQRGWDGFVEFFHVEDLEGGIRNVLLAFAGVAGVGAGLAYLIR
Sequence of Apoptosis regulator Bcl-2 (P10415 whole entry): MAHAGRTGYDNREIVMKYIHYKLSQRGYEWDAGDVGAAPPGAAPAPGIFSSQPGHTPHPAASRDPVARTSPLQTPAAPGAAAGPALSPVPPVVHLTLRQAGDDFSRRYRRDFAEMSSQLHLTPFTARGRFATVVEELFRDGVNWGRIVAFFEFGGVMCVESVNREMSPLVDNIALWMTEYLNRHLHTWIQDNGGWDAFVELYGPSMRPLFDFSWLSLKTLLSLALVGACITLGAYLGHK
Sequence of Bcl-2-like protein 1 (Q07817 whole entry): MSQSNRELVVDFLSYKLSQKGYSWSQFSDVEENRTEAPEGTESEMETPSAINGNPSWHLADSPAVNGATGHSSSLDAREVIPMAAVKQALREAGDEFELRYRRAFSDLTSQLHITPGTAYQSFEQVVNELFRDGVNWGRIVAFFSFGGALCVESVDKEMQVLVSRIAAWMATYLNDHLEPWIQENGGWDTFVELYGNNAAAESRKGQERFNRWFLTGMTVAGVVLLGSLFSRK

As to `O=C(/C=C/c1ccccc1)Nc1ccc(C(=O)NS(=O)(=O)c2ccc(NCCSc3ccccc3)c([N+](=O)[O-])c2)cc1`, the Ki in assay [1] was 4900 nM; in [3], 1600 nM; at Bcl-2-like protein 1, 140 nM. In addition, the values for the Ratio Ki in the assay listed under Homo sapiens [2] and in the assay listed under Homo sapiens [4] were 3 and 35, respectively.
For the compound `CN(C)CC[C@H](CSc1ccccc1)Nc1ccc(S(=O)(=O)NC(=O)c2ccc(N3CCN(Cc4ccccc4-c4ccc(Cl)cc4)CC3)cc2)cc1[N+](=O)[O-]` [ABT 737], the IC50 in assay [5] worked out at 71200 nM; in assay [6], 27400 nM; in [7], 46600 nM; in [8], 970 nM; in assay [9] it was 25300 nM.
Turning to `C=C(c1ccc(C(=O)Nc2ccc(C(=O)NS(=O)(=O)c3ccc(NCCSc4ccccc4)c([N+](=O)[O-])c3)cc2)cc1)c1cc2c(cc1C)C(C)(C)CCC2(C)C`, the IC50 turned out to be 8380 nM in assay [5]; 6950 nM in [6]; 7830 nM in assay [7]; 2920 nM in assay [8]; 260 nM in assay [9]. The inhibition constant (Ki) is 3100 nM in assay [1], 290 nM in [3] and greater than 20000 nM on Bcl-2-like protein 1. For the same compound, the results for the Ratio Ki in the assay filed under Homo sapiens [2] and in the assay filed under Homo sapiens [4] were 11 and less than 1, respectively.
In the case of `O=C(/C=C/c1cccc(Cl)c1)Nc1ccc(C(=O)NS(=O)(=O)c2ccc(NCCSc3ccccc3)c([N+](=O)[O-])c2)cc1`, the Ki in assay [1] came out at 1300 nM; in assay [3], 1300 nM; on Bcl-2-like protein 1, 290 nM. Moreover, the Ratio Ki in the assay listed under Homo sapiens [2] was determined as 1; in the assay filed under Homo sapiens [4], 4.
Take `COc1ccccc1/C=C/C(=O)Nc1ccc(C(=O)NS(=O)(=O)c2ccc(NCCSc3ccccc3)c([N+](=O)[O-])c2)cc1`: the Ki in assay [1] was determined as 720 nM; in assay [3], 8600 nM; at Bcl-2-like protein 1, 90 nM. Further, the results for the Ratio Ki in the assay filed under Homo sapiens [2] and in the assay filed under Homo sapiens [4] were less than 1 and 8, respectively.
On to `Cc1cccc(/C=C/C(=O)Nc2ccc(C(=O)NS(=O)(=O)c3ccc(NCCSc4ccccc4)c([N+](=O)[O-])c3)cc2)c1`, for which the results for the Ki (in assay [1]; in assay [3]; on Bcl-2-like protein 1) were 1700 nM, 440 nM and 160 nM, respectively. Further, the values for the Ratio Ki in the assay filed under Homo sapiens [2] and in the assay listed under Homo sapiens [4] were 4 and 11, respectively.
With `COc1ccc(/C=C/C(=O)Nc2ccc(C(=O)NS(=O)(=O)c3ccc(NCCSc4ccccc4)c([N+](=O)[O-])c3)cc2)cc1`, the Ki in [1] is 1300 nM; in assay [3], 590 nM; on Bcl-2-like protein 1, 70 nM. Moreover, the Ratio Ki amounted to 2 in the assay filed under Homo sapiens [2] and 19 in the assay filed under Homo sapiens [4].
Take `O=C(/C=C/c1ccc(C(F)(F)F)cc1)Nc1ccc(C(=O)NS(=O)(=O)c2ccc(NCCSc3ccccc3)c([N+](=O)[O-])c2)cc1`: the Ki in assay [1] was 2000 nM; in [3], 1700 nM; at Bcl-2-like protein 1, 510 nM. Also, the Ratio Ki in the assay filed under Homo sapiens [2] was found to be 1; in the assay listed under Homo sapiens [4], 4.
Taken in the same sequence, the figures for `COc1cccc(/C=C/C(=O)Nc2ccc(C(=O)NS(=O)(=O)c3ccc(NCCSc4ccccc4)c([N+](=O)[O-])c3)cc2)c1` were 1900 nM, 800 nM, 110 nM, 2 and 17.
Regarding `O=C(/C=C/c1ccccc1Cl)Nc1ccc(C(=O)NS(=O)(=O)c2ccc(NCCSc3ccccc3)c([N+](=O)[O-])c2)cc1`, the Ki worked out at 600 nM in [1], 14000 nM in assay [3] and 120 nM on Bcl-2-like protein 1. Further, the figures for the Ratio Ki in the assay listed under Homo sapiens [2] and in the assay listed under Homo sapiens [4] were less than 1 and 5, respectively.
In [3], `Cc1cc2c(C(C)C)c(O)c(O)c(C=O)c2c(O)c1-c1c(C)cc2c(C(C)C)c(O)c(O)c(C=O)c2c1O` [GOSSYPOL] returned a Ki of 640 nM.
In the case of `O=C(CCc1ccccc1)Nc1ccc(C(=O)NS(=O)(=O)c2ccc(NCCSc3ccccc3)c([N+](=O)[O-])c2)cc1`, the Ki was 4400 nM in [1], 6900 nM in assay [3] and 320 nM on Bcl-2-like protein 1. The results for the Ratio Ki in the assay filed under Homo sapiens [2] and in the assay filed under Homo sapiens [4] were 1 and 14, respectively.
As for `O=C(/C=C/c1ccc(Cl)cc1)Nc1ccc(C(=O)NS(=O)(=O)c2ccc(NCCSc3ccccc3)c([N+](=O)[O-])c2)cc1`, the figures for the Ki (in assay [1]; in assay [3]; at Bcl-2-like protein 1) were 1100 nM, 2700 nM and 210 nM, respectively. In addition, the Ratio Ki in the assay listed under Homo sapiens [2] is less than 1; in the assay filed under Homo sapiens [4] it was 5.
As to `Cc1ccc(/C=C/C(=O)Nc2ccc(C(=O)NS(=O)(=O)c3ccc(NCCSc4ccccc4)c([N+](=O)[O-])c3)cc2)cc1`, the inhibition constant (Ki) in assay [1] was 1500 nM; in assay [3], 630 nM; at Bcl-2-like protein 1, 130 nM. For the same compound, the Ratio Ki in the assay listed under Homo sapiens [2] came out at 2; in the assay listed under Homo sapiens [4], 12.
For the compound `O=C(/C=C/c1cccc(C(F)(F)F)c1)Nc1ccc(C(=O)NS(=O)(=O)c2ccc(NCCSc3ccccc3)c([N+](=O)[O-])c2)cc1`, the Ki in [1] was 2600 nM; in [3], 5400 nM; at Bcl-2-like protein 1 it was 290 nM. In addition, the values for the Ratio Ki in the assay listed under Homo sapiens [2] and in the assay listed under Homo sapiens [4] were less than 1 and 9, respectively.
`C=C(c1ccc(C(=O)NS(=O)(=O)c2ccc(NCCSc3ccccc3)c([N+](=O)[O-])c2)cc1)c1cc2c(cc1C)C(C)(C)CCC2(C)C`: the half-inhibitory concentration (IC50) worked out at 7400 nM in [5]; 7630 nM in [6]; 7640 nM in assay [7]; 4860 nM in assay [8]; 2250 nM in [9]. The Ki was 4200 nM in assay [1], 60 nM in assay [3] and greater than 20000 nM on Bcl-2-like protein 1. Also, the Ratio Ki in the assay filed under Homo sapiens [2] was 70; in the assay listed under Homo sapiens [4], less than 1.
For `O=C(Nc1ccc(C(=O)NS(=O)(=O)c2ccc(NCCSc3ccccc3)c([N+](=O)[O-])c2)cc1)c1ccccc1`, the figures for the inhibition constant (Ki) (in [1]; in assay [3]; on Bcl-2-like protein 1) were 1700 nM, 6700 nM and 630 nM, respectively. Moreover, the Ratio Ki in the assay filed under Homo sapiens [2] was less than 1; in the assay filed under Homo sapiens [4], 3.
Consider `O=C(NS(=O)(=O)c1ccc(NCCSc2ccccc2)c([N+](=O)[O-])c1)c1ccc(C(=O)c2ccccc2)cc1`, for which the values for the inhibition constant (Ki) (in assay [1]; in [3]; on Bcl-2-like protein 1) were 3400 nM, 4000 nM and 330 nM, respectively. The Ratio Ki in the assay listed under Homo sapiens [2] was 1; in the assay filed under Homo sapiens [4] it was 10.
As to `O=C(/C=C/c1ccccc1C(F)(F)F)Nc1ccc(C(=O)NS(=O)(=O)c2ccc(NCCSc3ccccc3)c([N+](=O)[O-])c2)cc1`, the Ki in [1] came out at 1700 nM; in assay [3], 660 nM; on Bcl-2-like protein 1, 170 nM. For the same compound, the Ratio Ki is 3 in the assay listed under Homo sapiens [2] and 10 in the assay filed under Homo sapiens [4].
On the same counts, the results for `Cc1ccccc1/C=C/C(=O)Nc1ccc(C(=O)NS(=O)(=O)c2ccc(NCCSc3ccccc3)c([N+](=O)[O-])c2)cc1` are 1700 nM, 830 nM, 210 nM, 2 and 8.
Taken in the same sequence, the figures for `O=C(Cc1ccccc1)Nc1ccc(C(=O)NS(=O)(=O)c2ccc(NCCSc3ccccc3)c([N+](=O)[O-])c2)cc1` were 4000 nM, 5600 nM, 450 nM, 1 and 9.
